9 compounds from patent EP0406111A1, “Substituted arylamines and heteroarylamines, process for their preparation and pharmaceutical composition containing them” (SOCIETE DE CONSEILS DE […] D'APPLICATIONS SCIENTIFIQUES …, priority 1989, dated 1991) can be followed below.

One test deals with récepteur de la PCP. Nature of the test: Competition binding at the (3H)TCP sites on rat brain homogenates (Example 36). As to conditions: 1 nM (3H)TCP, 30 min at 25°C. The text has this: Exemple 36 : Affinité des composés pour les sites de liaison de la (³H)TCP sur les homogénats de cerveaux de rats.
Dans cet essai on mesure les affinités des composés pour le récepteur de la PCP par des expériences de compétition sur des homogénats de cerveaux de rats. Le ligand radioactif utilisé est la (³H)TCP à une activité spécifique de 62 Ci/mmol (Service des Molécules Marquées, CEA Saclay France).
Les cerveaux de rats (sans le cervelet et le tronc cérébral) sont homogénéisés à l'ultra turax dans 20 volumes de tampon Hepes-Tris 50 mM, pH 7,7. Après centrifugation pendant 30 min à 15000 g le culot est repris dans le même volume de tampon et recentrifugé dans les mêmes conditions. Le culot final est repris dans du tampon Hepes-Tris 50 mM, pH 7,7 de façon à obtenir une concentration en protéine de 6 à 8 mg/ml.
Les expériences de compétition sont réalisées en incubant pendant 30 min les membranes (concentration finale en protéine : 0,6 à 0,8 mg/ml) en milieu tampon 5 mM Hepes-Tris, pH 7,7 à 25°C, en présence d'une concentration fixe de ligand tritié (1 nM)et de concentrations croissantes de composés à tester. Trois échantillons de 600 µL sont ensuite filtrés sur filtres de fibres de verre GF/B prétraités par du PEI (polyéthylénimine) à 0,1%. Les filtres sont rincés avec 3x5ml de tampon Tris-HCl 10 mM, NaCl 100 mM et la radioactivité retenue est mesurée dans un compteur à scintillation liquide. La liaison non spécifique est obtenue en présence de TCP […].

For another test, the target named is T1, capture de noradrénaline (Rattus norvegicus, UniProt Q63380).
T1 construct: préparations synaptosomales brutes d'hypothalamus de rats; from tissue; host or cells: male Sprague-Dawley rat hypothalamus, crude synaptosomal fraction
As to the kind of experiment: Tritiated noradrenaline uptake by crude synaptosomal preparations of rat hypothalamus (Example 37). The class given is biochemical. The following applies: rat hypothalamus synaptosomes, 50 nM tritiated noradrenaline, 10 min at 37°C; read-out: Capture 3H-NA IC₅₀. As for the experimental part: Exemple 37 : Mesure de la capture de noradrénaline.
La capture de noradrénaline tritiée (40 Ci/mmole) est évaluée à partir de préparations synaptosomales brutes d'hypothalamus de rats (Sprague-Dawley mâle, 200-300g, Charles River, St Aubin lès Elbeuf, France).
Les animaux sont sacrifiés par décapitation et les cerveaux sont rapidement dégagés. Les hypothalami, disséqués à 0-4°C, sont homogénéisés dans 10 volumes (poids/volume) de saccharose 0,32 M préalablement refroidi, au moyen d'un homogénéiseur type Potter-Elvejhem (clairance 80-130 µm, 800 rpm). Les débris cellulaires et le matériel nucléaire sont éliminés par centrifugation (1000 g, 10 min, 4°C). Le surnageant constitue la fraction synaptosomale brute.
Des aliquots (50 µl) de préparation synaptosomale sont préincubés pendant 5 minutes à 37°C, en présence de pargyline 20 µM, et de concentrations croissantes des composés à tester, dans […] d'un milieu Krebs-Ringer enrichi en glucose (composition en mM : NaCl 103, CaCl₂1, MgCl₂ 1, KH₂PO₄ 1, NaHCO₃ 27, acide ascorbique 0,1, glucose 5,4). A l'issue de cette préincubation, la noradrénaline tritiée (concentration finale 50 nM) est ajoutée sous un volume de 40 µl, et l'incubation est poursuivie à 37°C pendant 10 minutes. La réaction est arrêtée par dilution avec 2 ml de milieu glacé et centrifugation (7000 g, 10 minutes, 4°C). Après lavage du culot de centrifugation dans 1 ml de milieu glacé, l'échantillon est à nouveau centrifugé dans les mêmes conditions. Le culot obtenu est remis en suspension dans 250 µl d'eau distillée par sonication (Sonotrode TC 4C). 100 µl de cette suspension sont utilisés pour la mesure de la radioactivité par scintillation liquide (SL 2000, Kontron intertechniques, Trappes, France) et 50 µl pour la détermination des taux de protéines (selon la méthode de Lowry et al.).
La capture non spécifique est étudiée simultanément à 0°C en présence des différentes concentrations de composé.
La capture spécifique (capture totale - capture à 0°C) est exprimée en fentomoles/mg de protéines.
Pour chaque concentration étudiée la mesure était faite en double, 3 à 5 expériences étant pratiquées à des jours différents (préparations synaptosomales différentes). Pour chaque composé, au moins 4 concentrations ont été étudiées (entre 10⁻⁹ et 10⁻⁶M habituellement).

T1 sequence (Q63380 1-617): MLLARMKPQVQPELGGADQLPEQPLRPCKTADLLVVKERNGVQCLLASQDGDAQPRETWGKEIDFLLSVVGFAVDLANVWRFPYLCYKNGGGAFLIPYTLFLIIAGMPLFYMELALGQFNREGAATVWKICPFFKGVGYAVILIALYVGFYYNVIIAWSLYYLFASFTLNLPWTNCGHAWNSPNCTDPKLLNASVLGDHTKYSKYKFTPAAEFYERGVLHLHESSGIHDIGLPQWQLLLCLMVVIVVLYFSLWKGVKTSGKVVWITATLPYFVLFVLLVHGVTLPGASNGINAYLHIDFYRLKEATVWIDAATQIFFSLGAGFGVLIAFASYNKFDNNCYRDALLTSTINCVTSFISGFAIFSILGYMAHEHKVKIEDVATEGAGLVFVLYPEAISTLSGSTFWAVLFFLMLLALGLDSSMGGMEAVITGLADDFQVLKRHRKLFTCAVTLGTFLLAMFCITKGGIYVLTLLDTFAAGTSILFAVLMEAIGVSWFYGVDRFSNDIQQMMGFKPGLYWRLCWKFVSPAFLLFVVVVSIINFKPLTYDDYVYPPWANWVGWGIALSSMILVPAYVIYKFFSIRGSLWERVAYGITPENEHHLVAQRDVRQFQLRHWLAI

Consider `OC1CCN(C2(c3cc4ccccc4s3)CCCCC2)CC1` [composé 26, (benzo(b)thiophényl-2)-1( (ol-4-pipéridino)-1)-1 cyclohexane], for which, at récepteur de la PCP, the IC50 came out at 31900 nM.

With `CCCN(CCC)C1(c2cc3ccccc3s2)CCCCC1` [composé no 3, (benzo(b)thiophényl-2)-1 (dipropylamino-1)-1 cyclohexane], the IC50 at capture de noradrénaline came to 22.7 nM; at récepteur de la PCP, 424000 nM.

Consider `CC1CC(C)CN(C2(c3cc4ccccc4s3)CCCCC2)C1` (centres unmarked) [composé n^o 6, (benzo(b)thiophényl-2)-1 ((diméthyl-3,5 pipéridino)-1)-1 cyclohexane], for which the results for the IC50 at capture de noradrénaline and on récepteur de la PCP were 12.5 nM and above 100000 nM, respectively.

`C[C@H]1CC[C@@](c2cc3ccccc3s2)(N2CCCCC2)CC1` [composé n^o 21, (benzo(b)thiophényl-2)-1 c-méthyl-4-r-(pipéridino-1)-1 cyclohexane]: the IC50 is 16.5 nM at capture de noradrénaline and above 100000 nM on récepteur de la PCP.

Consider `c1ccc2sc(C3(N4CCCCC4)CCCCC3)cc2c1` [BTCP, (benzo(b)thiophényl-2)-1 (pipéridino -1) cyclohexane, reference compound], for which the figures for the IC50 at capture de noradrénaline and at récepteur de la PCP were 18.3 nM and 20000 nM, respectively.

On to `BrCC1CCCN(C2(c3cc4ccccc4s3)CCCCC2)C1` (centres unmarked) [composé n^o 10, (benzo(b)thiophényl-2)-1 ((bromométhyl-3 pipéridino)-1)-1 cyclohexane], for which the IC50 is 196 ± 31 nM on capture de noradrénaline and above 100000 nM at récepteur de la PCP.

In the case of `C[C@H]1CC[C@](c2cc3ccccc3s2)(N2CCCCC2)CC1` [composé n^o 20, (benzo(b)thiophényl-2)-1-t-méthyl-4-r-(pipéridino-1)-1 cyclohexane], the IC50 at capture de noradrénaline was determined as 94.3 nM; at récepteur de la PCP it was 112000 nM.

`CC1CCCN(C2(c3cc4ccccc4s3)CCCCC2)C1` (centres unmarked) [composé n^o 2, (benzo(b)thiophényl-2)-1 ((méthyl-3 pipéridino)-1)-1 cyclohexane]: the figures for the IC50 on capture de noradrénaline and at récepteur de la PCP were 40 ± 0.5 nM and 52000 nM, respectively.

With `c1ccc2oc(C3(N4CCCCC4)CCCCC3)cc2c1` [composé n^o 4, (benzo(b)furannyl-2)-1 (pipéridino-1)-1 cyclohexane], the IC50 at capture de noradrénaline is 22.2 nM; at récepteur de la PCP, 40000 nM.
